{"source": "patent US6696413B2", "about": "(Hexal AG, priority 1995, dated 2004)", "origin": "cited, not measured here", "conditions": "16 hours after application of 300 μg of a 5 percent vitamin E solution in ethanol per cm^2"}
{"substance": "vitamin E", "values": [{"measurement": "vitamin E found in the horny layer", "value": 10.7, "unit": "%"}, {"measurement": "vitamin E found in underlying skin layers", "value": "about 40.9%"}]}
